Patent US20230390274A1 (EPIRIUM BIO INC., priority 2020, published 2023)
In brackets after ≈: the same amount, converted by molar mass.

Columns and labels:
[1] = Compound stability in mouse liver microsomes; type: in vitro ADME; conditions: 37° C.
Experimental: A microsomal mixture comprising mouse liver microsomes and a potassium phosphate buffer was prepared at a concentration of 1.428 mg/mL in 2 mL tubes. 1.6 μL of test compound or imipramine as a positive control was added to the mixture, and 70 μL was transferred to a 96 well plate and pre-incubated at 37° C. for 5 minutes. After pre-incubation, […] 30 μL of NADPH (3.33 mM in potassium phosphate buffer) was added. The reaction mixtures were incubated at 37° C. for 15 and 45 minutes. Reactions without NADPH and buffer controls (minus NADPH) were conducted to rule out non-NADPH metabolism and chemical instability in the incubation buffer. The reactions were quenched with 100 μL ice cold acetonitrile containing an internal standard. The plates were centrifuged at 4000 RPM for 15 minutes and 100 μL aliquots were analyzed for parent compound disappearance by LC-MS/MS. The peak area ratios of analyte versus internal standard were used to calculate the percent remaining at the end of 45 minutes.

[2] = Pharmacokinetic study in rat, intravenous 1 mg/kg; type: in vivo
Experimental: (§1) Each mice PK study consisted of nine male C57BL/6 mice per group with sparse sampling design (n=3 mice per time point). The animals from intravenous groups were dosed with solution formulation of compounds via tail vein at 1 mg/kg dose. Ten compounds were screened in mice and one compound (the compound of Formula IV) was dosed in rat (n=3; serial sampling) following intravenous dose administration at 1 mg/kg dose. The solution formulation for compounds was prepared in 5% v/v DMA, 25% v/v PEG-400, and 70% v/v HPBCD (30% w/v); 15% v/v DMA, 5% Solutol HS-15, and 80% 1:1 PEG-300: Normal saline (2.25%); or 10% v/v DMA, 25% PEG-400, and 65% HPBCD (30% w/v solution). The dosing volume was 1 and 5 mL/kg for intravenous dose in rat and mice respectively. Blood samples (approximately 60 μL from mice and 120 μL from rats) were collected under light isoflurane anesthesia from a set of three mice at 0, 0.08, 0.25, 0.5, 1, 2, 4, 8, 12, and 24 hours post-dose. Plasma was harvested by centrifugation of blood and stored at −70±10° C. until analysis. Fit-for purpose LC-MS/MS method was developed and samples were processed by protein precipitation method. Non-Compartmental-Analysis tool of Phoenix WinNonlinR (Version 8.0) was used to assess the pharmacokinetic parameters. The areas under the concentration time curve (AUClast and AUCinf) were calculated by linear trapezoidal rule. The terminal elimination rate constant, Ke was determined by regression analysis of the linear terminal portion of the log plasma concentration-time curve. The terminal half-life (T1/2) was estimated at 0.693/ke. CLIV=Dose/AUCinf; Vss=MRT×CLIV.

[3] = Pharmacokinetic study in mice, intravenous 1 mg/kg; type: in vivo, C57BL/6 mice
Experimental: as §1

15-PGDH/HPGD = 15-PGDH/HPGD (Homo sapiens (Human), UniProt P15428); test: hPGDH inhibitor screening biochemical assay; conditions: Table 1, PGDH inhibitors with a 6-5 ring core; read-out: hPGDH: IC50
Outline: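 10 nM recombinant 15-PGDH was preincubated with compound (10-point) for 10 min at 37° C. in 50 mM Tris-HCl pH 7.5, 0.01% Tween 20. Then 15 μM PGE2 and 0.25 mM NAD+ were added for 10 min at rt. NADH fluorescence (ex/em 340/485 nm) gave % inhibition versus 1% DMSO and a four-parameter IC50.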

Solubility at pH 7.4 = type: physicochemical; conditions: aqueous buffer, Table 1, 6-5 ring core

Sequence of 15-PGDH/HPGD (P15428 whole entry): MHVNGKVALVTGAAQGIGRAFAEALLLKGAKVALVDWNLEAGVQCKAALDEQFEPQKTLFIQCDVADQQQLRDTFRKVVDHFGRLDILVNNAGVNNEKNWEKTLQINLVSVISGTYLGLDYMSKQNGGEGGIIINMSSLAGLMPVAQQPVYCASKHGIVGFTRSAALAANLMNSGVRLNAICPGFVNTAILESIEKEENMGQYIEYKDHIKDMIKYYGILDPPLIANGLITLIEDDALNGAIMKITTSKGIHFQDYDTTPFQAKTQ

| SMILES | % Remaining at 45 Minutes (Mouse Liver Microsomes + NADPH) [1] [%] | AUCinf [2] [ng·h/mL] | AUClast [2] [ng·h/mL] | C0/Cmax [2] [ng/mL] | CL [2] [mL/min/kg] | T1/2 [2] [min] | Vss [2] [L/kg] | AUCinf [3] [ng·h/mL] | AUClast [3] [ng·h/mL] | C0/Cmax [3] [ng/mL] | CL [3] [mL/min/kg] | T1/2 [3] [min] | Vss [3] [L/kg] | IC50 (15-PGDH/HPGD) [nM] | solubility (Solubility at pH 7.4) [µM] |
| --- | --- | --- | --- | --- | --- | --- | --- | --- | --- | --- | --- | --- | --- | --- | --- |
| O=C(c1cnc2c(ccn2-c2ccc(CO)cc2)c1)N1CCCCC1 [Formula IV] | 71 | 106.55 | 105.58 | 985.98 | 158.60 | 7.2 | 0.86 | – | – | – | – | – | – | – | – |
| NC(=O)c1ccc(-n2ccc3cc(C(=O)N4CCC(F)CC4)cnc32)cc1 [Formula IX] | 70 | – | – | – | – | – | – | 156.23 | 156.13 | 749.07 | 106.68 | 12 | 1.52 | – | – |
| CNC(=O)c1ccc(-n2ccc3cc(C(=O)N4CCCCC4)cnc32)cc1 [Formula VIII] | 80 | – | – | – | – | – | – | 156.49 | 156.43 | 1012.93 | 106.5 | 26.4 | 1.58 | – | – |
| CNC(=O)c1ccc(-n2ccc3cc(C(=O)N4CCC(F)CC4)cnc32)cc1 [Formula VII] | 88 | – | – | – | – | – | – | 214.11 | 211.95 | 633.31 | 77.84 | 20.4 | 1.56 | – | – |
| Cc1c(C(=O)N2CCC(F)CC2)cnc2c1ccn2-c1ccc(C(N)=O)cc1 [Formula VI] | 89 | – | – | – | – | – | – | 259.43 | 256.19 | 571.21 | 64.24 | 42 | 2.52 | – | – |
| CN(C)C(=O)c1ccc(-n2ccc3cc(C(=O)N4CCCCC4)cnc32)cc1 [Formula V] | 86 | – | – | – | – | – | – | 263.35 | 262.46 | 1442.49 | 63.29 | 18 | 0.76 | – | – |
| NC(=O)c1ncc(-n2ccc3cc(C(=O)N4CCCCC4)cnc32)cn1 [Formula XII] | 81 | – | – | – | – | – | – | 129.4 | 117.19 | 490.48 | 128.8 | 38.4 | 5.16 | – | – |
| O=C(c1cnc2c(ccn2-c2ccc(O)nc2)c1)N1CCCCC1 [Formula XIV] | 74 | – | – | – | – | – | – | 96.33 | 88.28 | 165.86 | 173.02 | 16.2 | 3.99 | – | – |
| COCCNC(=O)c1ccc(-n2ccc3cc(C(=O)N4CCC(F)CC4)cnc32)cc1 [Formula XI] | 84 | – | – | – | – | – | – | 131.66 | 130.44 | 663.41 | 126.59 | 9.6 | 1.39 | – | – |
| COCCNC(=O)c1ccc(-n2ccc3cc(C(=O)N4CCCCC4)cnc32)cc1 [Formula X] | 89 | – | – | – | – | – | – | 147.4 | 146.28 | 1272.79 | 113.07 | 4.2 | 0.58 | – | – |
| O=C(c1cnc2c(c1)ncn2-c1cccc(Cl)c1)N1CCCCC1 [drawing 103] | – | – | – | – | – | – | – | – | – | – | – | – | – | 1.5 | 21 (≈ 7.16 µg/mL) |
